Laboratory results: patent US11173192B2 (priority 2016, dated 2021)

Columns and labels:
[1] = tested on: VSV-infected RAW264.7 cells; type: cell-based
VSV = type: cell-based, vesicular stomatitis virus (VSV)

“EPRS: glutamyl-prolyl-tRNA synthetase protein, 1512 aa, SEQ ID NO: 63; expressed from plasmid or purified” was tested. Which “IFN-β production following infection with VSV” value [1] did it give?
Its value is “more production of IFN-β and IL-6”.

And the “IL-6 production following infection with VSV” value [1]?
The value was “more production of IFN-β and IL-6”.

What about the “viral replication following infection with VSV” value (VSV) of the same substance?
The value was “significantly less viral replication”.
